Experimental data: ChEMBL document CHEMBL3885881, “DrugMatrix”

Organism: Rattus norvegicus
Experiment: DrugMatrix - Regimen: Daily Repeat
Type: toxicity, organism-based, Sprague-Dawley
Parameters: regimen Daily Repeat, gender Male, age 6-8 weeks
Conditions: in vivo, po, route oral GAVAGE, vehicle .5 % CMC; for ABSOLUTE BASOPHIL / ABSOLUTE EOSINOPHIL / ABSOLUTE LYMPHOCYTE / ABSOLUTE MONOCYTE / ABSOLUTE SEGMENTED NEUTROPHIL / BASOPHIL / EOSINOPHIL / ERYTHROCYTE COUNT / HEMATOCRIT / HEMOGLOBIN / LEUKOCYTE COUNT / LYMPHOCYTE / MEAN CORPUSCULAR HEMOGLOBIN / MEAN CORPUSCULAR HEMOGLOBIN CONCENTRATION / MEAN CORPUSCULAR VOLUME / MONOCYTE / NEUTROPHIL / NUCLEATED RED BLOOD CELLS / PLATELET COUNT: tissue Blood; for ALANINE AMINOTRANSFERASE / ALBUMIN / ALKALINE PHOSPHATASE / ASPARTATE AMINOTRANSFERASE / BLOOD UREA NITROGEN / CARBON DIOXIDE / CHLORIDE / CHOLESTEROL / CREATINE PHOSPHOKINASE / CREATININE / GLUCOSE / LACTATE DEHYDROGENASE / LIPASE / PHOSPHORUS / POTASSIUM / SODIUM / TOTAL BILIRUBIN / TOTAL PROTEIN / URIC ACID: tissue Plasma
[1] = 20 mg/kg, 72 h, dose level Low, time 3 day
[2] = 20 mg/kg, 120 h, dose level Low, time 5 day
[3] = 600 mg/kg, 72 h, dose level High, time 3 day
[4] = 600 mg/kg, 120 h, dose level High, time 5 day

## CC(C)CN(C[C@@H](O)[C@H](Cc1ccccc1)NC(=O)O[C@H]1CCOC1)S(=O)(=O)c1ccc(N)cc1
[1]
  ABSOLUTE BASOPHIL: 0 CELLS/uL
  ABSOLUTE EOSINOPHIL: 148.67 CELLS/uL
  ABSOLUTE LYMPHOCYTE: 12756.67 CELLS/uL
  ABSOLUTE MONOCYTE: 107.67 CELLS/uL
  ABSOLUTE SEGMENTED NEUTROPHIL: 887 CELLS/uL
  BASOPHIL: 0%
  EOSINOPHIL: 1%
  ERYTHROCYTE COUNT: 5.52 x10E6/uL
  HEMATOCRIT: 35.2%
  HEMOGLOBIN: 13.3 G/DL
  LEUKOCYTE COUNT: 13.9 x10E3/uL
  LYMPHOCYTE: 91.67%
  MEAN CORPUSCULAR HEMOGLOBIN: 24.17 pg
  MEAN CORPUSCULAR HEMOGLOBIN CONCENTRATION: 37.8 G/DL
  MEAN CORPUSCULAR VOLUME: 63.87 fL
  MONOCYTE: 0.67%
  NEUTROPHIL: 6.67%
  NUCLEATED RED BLOOD CELLS: 0 /100WBC
  PLATELET COUNT: 1248.33 x10E3/uL
  ALANINE AMINOTRANSFERASE: 50 u/L
  ALBUMIN: 4.23 G/DL
  ALKALINE PHOSPHATASE: 362 u/L
  ASPARTATE AMINOTRANSFERASE: 76.33 u/L
  BLOOD UREA NITROGEN: 16.33 mg/dL
  CARBON DIOXIDE: 26 mmol/L
  CHLORIDE: 102 MEQ/L
  CHOLESTEROL: 67 mg/dL
  CREATINE PHOSPHOKINASE: 172.67 u/L
  CREATININE: 0.21 mg/dL
  GLUCOSE: 169.67 mg/dL
  LACTATE DEHYDROGENASE: 136.67 u/L
  LIPASE: 8 u/L
  PHOSPHORUS: 12.83 mg/dL
  POTASSIUM: 6.23 MEQ/L
  SODIUM: 144.7 MEQ/L
  TOTAL BILIRUBIN: 0.17 mg/dL
  TOTAL PROTEIN: 6.07 G/DL
  URIC ACID: 1.83 mg/dL
[2]
  ABSOLUTE BASOPHIL: 0 CELLS/uL
  ABSOLUTE EOSINOPHIL: 74 CELLS/uL
  ABSOLUTE LYMPHOCYTE: 7729 CELLS/uL
  ABSOLUTE MONOCYTE: 39.33 CELLS/uL
  ABSOLUTE SEGMENTED NEUTROPHIL: 524.33 CELLS/uL
  BASOPHIL: 0%
  EOSINOPHIL: 1%
  ERYTHROCYTE COUNT: 5.73 x10E6/uL
  HEMATOCRIT: 35.57%
  HEMOGLOBIN: 13.37 G/DL
  LEUKOCYTE COUNT: 8.37 x10E3/uL
  LYMPHOCYTE: 92%
  MEAN CORPUSCULAR HEMOGLOBIN: 23.33 pg
  MEAN CORPUSCULAR HEMOGLOBIN CONCENTRATION: 37.63 G/DL
  MEAN CORPUSCULAR VOLUME: 62.13 fL
  MONOCYTE: 0.33%
  NEUTROPHIL: 6.67%
  NUCLEATED RED BLOOD CELLS: 0 /100WBC
  PLATELET COUNT: 1179.33 x10E3/uL
  ALANINE AMINOTRANSFERASE: 54.33 u/L
  ALBUMIN: 4.43 G/DL
  ALKALINE PHOSPHATASE: 421.33 u/L
  ASPARTATE AMINOTRANSFERASE: 83 u/L
  BLOOD UREA NITROGEN: 14.33 mg/dL
  CARBON DIOXIDE: 28.33 mmol/L
  CHLORIDE: 101 MEQ/L
  CHOLESTEROL: 68 mg/dL
  CREATINE PHOSPHOKINASE: 229.67 u/L
  CREATININE: 0.2 mg/dL
  GLUCOSE: 141 mg/dL
  LACTATE DEHYDROGENASE: 108 u/L
  LIPASE: 8.67 u/L
  PHOSPHORUS: 12.47 mg/dL
  POTASSIUM: 6.58 MEQ/L
  SODIUM: 146.5 MEQ/L
  TOTAL BILIRUBIN: 0.2 mg/dL
  TOTAL PROTEIN: 6.3 G/DL
  URIC ACID: 1.3 mg/dL
[3]
  ABSOLUTE BASOPHIL: 0 CELLS/uL
  ABSOLUTE EOSINOPHIL: 50.33 CELLS/uL
  ABSOLUTE LYMPHOCYTE: 11050.67 CELLS/uL
  ABSOLUTE MONOCYTE: 72.33 CELLS/uL
  ABSOLUTE SEGMENTED NEUTROPHIL: 1093.33 CELLS/uL
  BASOPHIL: 0%
  EOSINOPHIL: 0.33%
  ERYTHROCYTE COUNT: 5.53 x10E6/uL
  HEMATOCRIT: 35.5%
  HEMOGLOBIN: 13.6 G/DL
  LEUKOCYTE COUNT: 12.27 x10E3/uL
  LYMPHOCYTE: 89.67%
  MEAN CORPUSCULAR HEMOGLOBIN: 24.57 pg
  MEAN CORPUSCULAR HEMOGLOBIN CONCENTRATION: 38.27 G/DL
  MEAN CORPUSCULAR VOLUME: 64.1 fL
  MONOCYTE: 0.67%
  NEUTROPHIL: 9.33%
  NUCLEATED RED BLOOD CELLS: 0 /100WBC
  PLATELET COUNT: 1258 x10E3/uL
  ALANINE AMINOTRANSFERASE: 56.67 u/L
  ALBUMIN: 4.33 G/DL
  ALKALINE PHOSPHATASE: 381 u/L
  ASPARTATE AMINOTRANSFERASE: 116.67 u/L
  BLOOD UREA NITROGEN: 16 mg/dL
  CARBON DIOXIDE: 25 mmol/L
  CHLORIDE: 107.33 MEQ/L
  CHOLESTEROL: 69 mg/dL
  CREATINE PHOSPHOKINASE: 1567.67 u/L
  CREATININE: 0.18 mg/dL
  GLUCOSE: 194.33 mg/dL
  LACTATE DEHYDROGENASE: 164.67 u/L
  LIPASE: 8.67 u/L
  PHOSPHORUS: 14.17 mg/dL
  POTASSIUM: 6.64 MEQ/L
  SODIUM: 145.83 MEQ/L
  TOTAL BILIRUBIN: 0.23 mg/dL
  TOTAL PROTEIN: 5.97 G/DL
  URIC ACID: 2.07 mg/dL
[4]
  ABSOLUTE BASOPHIL: 0 CELLS/uL
  ABSOLUTE EOSINOPHIL: 292.33 CELLS/uL
  ABSOLUTE LYMPHOCYTE: 15254.33 CELLS/uL
  ABSOLUTE MONOCYTE: 69 CELLS/uL
  ABSOLUTE SEGMENTED NEUTROPHIL: 1517.67 CELLS/uL
  BASOPHIL: 0%
  EOSINOPHIL: 1.67%
  ERYTHROCYTE COUNT: 5.48 x10E6/uL
  HEMATOCRIT: 34.63%
  HEMOGLOBIN: 13.17 G/DL
  LEUKOCYTE COUNT: 17.13 x10E3/uL
  LYMPHOCYTE: 88.67%
  MEAN CORPUSCULAR HEMOGLOBIN: 24.03 pg
  MEAN CORPUSCULAR HEMOGLOBIN CONCENTRATION: 38 G/DL
  MEAN CORPUSCULAR VOLUME: 63.2 fL
  MONOCYTE: 0.33%
  NEUTROPHIL: 9.33%
  NUCLEATED RED BLOOD CELLS: 0 /100WBC
  PLATELET COUNT: 1347.67 x10E3/uL
  ALANINE AMINOTRANSFERASE: 41.67 u/L
  ALBUMIN: 4.2 G/DL
  ALKALINE PHOSPHATASE: 390 u/L
  ASPARTATE AMINOTRANSFERASE: 76.33 u/L
  BLOOD UREA NITROGEN: 15.67 mg/dL
  CARBON DIOXIDE: 27.33 mmol/L
  CHLORIDE: 102.33 MEQ/L
  CHOLESTEROL: 58.67 mg/dL
  CREATINE PHOSPHOKINASE: 202 u/L
  CREATININE: 0.21 mg/dL
  GLUCOSE: 161.33 mg/dL
  LACTATE DEHYDROGENASE: 95.67 u/L
  LIPASE: 8.33 u/L
  PHOSPHORUS: 12.93 mg/dL
  POTASSIUM: 6.23 MEQ/L
  SODIUM: 144.37 MEQ/L
  TOTAL BILIRUBIN: 0.17 mg/dL
  TOTAL PROTEIN: 6 G/DL
  URIC ACID: 1.77 mg/dL
